Experiment [1] has as its target T1, Sphingosine kinase 2 (Homo sapiens) (UniProt Q9NRA0).
T1 sequence (whole entry): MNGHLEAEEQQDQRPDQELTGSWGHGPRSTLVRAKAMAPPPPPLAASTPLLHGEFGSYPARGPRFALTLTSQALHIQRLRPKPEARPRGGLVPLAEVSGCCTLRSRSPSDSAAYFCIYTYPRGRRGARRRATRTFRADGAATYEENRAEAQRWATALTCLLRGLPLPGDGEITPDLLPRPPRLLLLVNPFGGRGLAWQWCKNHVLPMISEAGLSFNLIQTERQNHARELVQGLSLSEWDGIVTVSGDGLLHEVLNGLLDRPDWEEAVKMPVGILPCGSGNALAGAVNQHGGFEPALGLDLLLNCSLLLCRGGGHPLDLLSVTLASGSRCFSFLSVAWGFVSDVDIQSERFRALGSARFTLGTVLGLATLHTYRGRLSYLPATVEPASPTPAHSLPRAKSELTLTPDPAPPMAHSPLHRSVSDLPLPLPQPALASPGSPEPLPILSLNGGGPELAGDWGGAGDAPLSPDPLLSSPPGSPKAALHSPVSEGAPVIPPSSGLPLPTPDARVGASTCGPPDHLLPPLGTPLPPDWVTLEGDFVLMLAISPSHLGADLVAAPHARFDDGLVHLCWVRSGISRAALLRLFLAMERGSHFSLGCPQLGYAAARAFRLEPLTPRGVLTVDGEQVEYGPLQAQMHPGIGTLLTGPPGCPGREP
The experiment is described as follows: Inhibition of sphingosine kinase 2 at 10 uM.

In the next experiment the target is Sphingosine kinase 1 (Homo sapiens, UniProt Q9NYA1). The experiment is described as follows: Inhibition of human sphingosine kinase 1 by off chip mobility shift assay.

Molecules are shown by their SMILES. Active and inactive are the calls of the source. The calls are words filed in the database; no cut-off is given here.

Sequence of Sphingosine kinase 1 (Q9NYA1 whole entry): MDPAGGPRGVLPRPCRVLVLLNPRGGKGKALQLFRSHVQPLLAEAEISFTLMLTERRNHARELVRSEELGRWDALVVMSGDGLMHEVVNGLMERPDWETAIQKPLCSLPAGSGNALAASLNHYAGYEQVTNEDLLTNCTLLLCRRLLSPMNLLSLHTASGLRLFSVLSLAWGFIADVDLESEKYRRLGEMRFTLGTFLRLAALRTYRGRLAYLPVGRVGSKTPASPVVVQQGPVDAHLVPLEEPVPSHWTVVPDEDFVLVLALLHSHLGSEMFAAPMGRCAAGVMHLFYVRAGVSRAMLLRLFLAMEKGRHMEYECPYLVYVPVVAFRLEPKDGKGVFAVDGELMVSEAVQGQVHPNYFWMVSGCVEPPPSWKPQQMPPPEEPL

For `CCCCCCCCc1ccc(CCNC(=O)[C@H]2NCC[C@@H]2O)cc1`, the inhibition entry in experiment [1] was “inactive”. For the same molecule, on Sphingosine kinase 1, the IC50 (usually the concentration that gives 50% inhibition) was 6.2 µM.
The corresponding values for `CCCCCCCCc1ccc(NC(=O)[C@H]2NC[C@@H](O)[C@@H]2O)cc1` are “inactive” and 8.3 µM.
For `CCCCCCCCc1ccc(NC(=O)[C@@H](N)[C@@H](C)O)cc1`, the inhibition result in experiment [1] was “inactive”. Besides, the concentration for half-maximal inhibition (IC50) at Sphingosine kinase 1 turned out to be 0.65 µM.
Turning to `CCCCCCCCc1ccc(NC[C@H]2NCC[C@@H]2O)cc1`, the inhibition entry in experiment [1] is “inactive”.
On the same count and under the same terms, under `CCCCCCCCc1ccc(NC(=O)[C@@H](N)[C@H](C)O)cc1` stands “inactive”.
Regarding `CCCCCCCCc1ccc(NC(=O)[C@H](N)[C@H](C)O)cc1`, the inhibition entry in experiment [1] was “inactive”.
For `CCCCCCCCc1ccc(CNC(=O)[C@H]2NCC[C@@H]2O)cc1`, in experiment [1], the inhibition result was “inactive”. Besides, the IC50 on Sphingosine kinase 1 came to 0.43 µM.
In the case of `CCCCCCCCc1ccc(NC(=O)[C@@H](N)[C@@H](O)CC)cc1` (racemic), the inhibition result in experiment [1] was “inactive”.
Consider `CCCCCCCCc1ccc(NC(=O)C(N)CCO)cc1` (racemic), for which the inhibition entry in experiment [1] is “inactive”.
Same read-out and setting: as for `CCCCCCCCc1ccc(CNC(=O)C(N)CCO)cc1` (racemic), the entry is “inactive”.
Regarding `CCCCCCCCc1ccc(NC(=O)[C@@H](N)CCO)cc1`, the inhibition result in experiment [1] was “inactive”.
`CCCCCCCCc1ccc(NC(=O)C(N)C(C)(C)O)cc1` (racemic): in experiment [1], the inhibition result was “inactive”. For the same molecule, on Sphingosine kinase 1, the IC50 amounted to 2.1 µM.
Taken in the same sequence, the figures for `CCCCCCCCc1ccc(NC(=O)C(N)CCCO)cc1` (racemic) were “inactive” and more than 10 µM.
As for `CCCCCCCCc1ccc(NC(=O)[C@H](CO)NC)cc1`, the inhibition entry in experiment [1] was “inactive”.
Turning to `CCCCCCCCc1ccc(NC(=O)[C@@H](N)CCCCO)cc1`, in experiment [1], the inhibition entry is “inactive”.
Turning to `CCCCCCCCc1ccc(NC(=O)[C@@H](N)CO)cc1`, the inhibition entry in experiment [1] is “inactive”.
Still for that read-out and setting: as for `CCCCCCCCc1ccc(NC(=O)[C@H]2NCC[C@@H]2O)cc1`, the entry is “inactive”.
Turning to `CCCCCCCCc1ccc(NC(=O)C(C)(N)CO)cc1` (racemic), in experiment [1], the inhibition result was “inactive”. For the same molecule, on Sphingosine kinase 1, the IC50 was more than 10 µM.
Regarding `CCCCCCCCc1ccc(NC(=O)[C@H](N)CCO)cc1`, the inhibition result in experiment [1] is “inactive”.
For the molecule `CCCCCCCCc1ccc(NCC(N)CCO)cc1` (configuration not stated), the inhibition result in experiment [1] is “inactive”. Besides, the IC50 on Sphingosine kinase 1 was more than 10 µM.
On to `CCCCCCCCc1ccc(NC(=O)[C@H]2NCC[C@H]2O)cc1`, for which the inhibition entry in experiment [1] is “inactive”.
For the molecule `CCCCCCCCc1ccc(CNC(=O)C(N)CO)cc1` (racemic), the inhibition result in experiment [1] is “inactive”. Further, the IC50 at Sphingosine kinase 1 was more than 10 µM.
As for `CCCCCCCCc1ccc(NC(=O)[C@@H](N)COC)cc1`, the inhibition entry in experiment [1] is “inactive”. Besides, the IC50 at Sphingosine kinase 1 is more than 10 µM.
Turning to `CCCCCCCCc1ccc(NC(=O)[C@H](N)CO)cc1`, in experiment [1], the inhibition result was “inactive”.
On the same count and under the same terms, under `CCCCCCCCCCCCC/C=C/[C@@H](O)[C@H](CO)N(C)C` stands “inactive”; under `CCCCCCCCc1ccc(NC[C@@H](N)CO)cc1`, “inactive”.
For the molecule `CCCCCCCCc1ccc(NC(=O)[C@H](N)[C@@H](C)O)cc1`, the inhibition entry in experiment [1] is “inactive”.

Values taken from ChEMBL document CHEMBL1154587, “Discovery of novel sphingosine kinase 1 inhibitors” (Bioorg Med Chem Lett, 2009).
